Test results reported in patent publication US11840686B2, “Modulation of prekallikrein (PKK) expression” (Ionis Pharmaceuticals, Inc., priority 2013, dated 2023).
Strand notation (5' to 3'): a small letter for the sugar, then the base; units joined by * are phosphorothioate-linked, units joined directly phosphodiester-linked; [ ] holds rarer units or linkages, { } end groups; capitals alone tell only the bases. e = 2'-O-(2-methoxyethyl) (MOE); [5mC] = 5-methylcytosine; d = 2'-deoxy (DNA)

Tested on: human PKK mRNA
Assay: Antisense inhibition of human PKK mRNA in HepaRG cells, 3,000 nM (Example 1)
Type: cell-based
Details: relative to untreated control cells
Outline: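 Values give percent PKK mRNA reduction relative to untreated controls, normalised to RIBOGREEN total RNA. mRNA was quantified by real-time PCR (RTS3454) about 24 h after electroporation. Each 20-mer MOE gapmer was delivered at 3,000 nM into 20,000 HepaRG cells per well.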

[1] = Table 3, HepaRG cells, electroporation with 3,000 nM antisense oligonucleotide, approx. 24 hours, PKK mRNA by RT-PCR (RTS3454)
[2] = Table 4, HepaRG cells, electroporation with 3,000 nM antisense oligonucleotide, approx. 24 hours, PKK mRNA by RT-PCR (RTS3454)
[3] = Table 1, PKK mRNA, HepaRG cells, 3,000 nM, electroporation, ~24 h
[4] = Table 2, PKK mRNA, HepaRG cells, 3,000 nM, electroporation, ~24 h

| Substance | % inhibition [2] | % inhibition [4] | also measured |
| --- | --- | --- | --- |
| 531108 (antisense eT*eG*eA*eA*e[5mC]*d[5mC]*d[5mC]*dA*dA*dA*dA*d[5mC]*dT*d[5mC]*dT*eG*eG*e[5mC]*eA*e[5mC]) [compound 531108] |  |  | % inhibition [1]: 50% |
| 531183 (antisense e[5mC]*eA*eT*eA*eA*dG*dA*dA*dT*dG*dT*dG*d[5mC]*dA*d[5mC]*eA*e[5mC]*eA*eA*eA) [compound 531183] | 39% |  |  |
| 530945 (antisense eA*eT*e[5mC]*e[5mC]*e[5mC]*d[5mC]*dA*d[5mC]*d[5mC]*dT*d[5mC]*dT*dG*dA*dA*eG*eA*eA*eG*eG) [compound 530945] |  |  | % inhibition [3]: 0% |
| 531052 (antisense eA*eG*eA*e[5mC]*e[5mC]*dA*dT*d[5mC]*d[5mC]*dG*dT*dT*dG*dG*dG*eT*eT*eA*eT*eT) [compound 531052] |  | 60% |  |
| 531181 (antisense eG*eG*eT*eT*eG*dA*dG*dG*dG*dA*d[5mC]*dA*dG*dA*d[5mC]*eA*e[5mC]*eA*eG*eG) [compound 531181] | 36% |  |  |
| 531054 (antisense e[5mC]*eT*eT*eT*eA*dT*dA*dG*d[5mC]*d[5mC]*dA*dG*d[5mC]*dA*d[5mC]*eA*eG*eA*e[5mC]*e[5mC]) [compound 531054] |  | 48% |  |
| 531177 (antisense eT*eT*e[5mC]*eT*eT*dG*dT*dA*dA*dA*dT*dG*dT*d[5mC]*dT*eG*eA*eA*eT*eT) [compound 531177] | 61% |  |  |
| 531082 (eA*eT*eA*eT*eT*dG*dG*dT*dT*dT*dT*dT*dG*dG*dA*eA*eT*eT*e[5mC]*eT; antisense) [compound 531082] |  | 31% |  |
| 531065 (antisense e[5mC]*eT*eT*eT*eG*dG*dT*dG*dT*dA*dG*dA*d[5mC]*dA*d[5mC]*e[5mC]*eA*eG*eG*eT) [compound 531065] |  | 57% |  |
| 531162 (antisense eA*eA*eT*eT*eT*d[5mC]*d[5mC]*d[5mC]*dA*dG*dA*dT*dG*dT*dA*eT*eT*eA*eG*eT) [compound 531162] | 43% |  |  |
| 531149 (antisense eA*eG*eA*eG*eG*dT*dA*dA*dA*dG*d[5mC]*dA*dA*d[5mC]*dT*eT*eG*e[5mC]*e[5mC]*e[5mC]) [compound 531149] |  |  | % inhibition [1]: 45% |
| 531129 (antisense eA*eG*e[5mC]*eA*eG*d[5mC]*dT*d[5mC]*dA*d[5mC]*dA*d[5mC]*d[5mC]*d[5mC]*dA*eA*eA*eA*eA*eG) [compound 531129] |  |  | % inhibition [1]: 0% |
| 531179 (antisense eG*eA*eT*eT*eG*dG*dA*d[5mC]*d[5mC]*d[5mC]*dA*dG*dA*d[5mC]*dA*e[5mC]*eT*eA*eT*eA) [compound 531179] | 57% |  |  |
| 530999 (e[5mC]*eA*eG*eT*e[5mC]*dT*dT*d[5mC]*dT*dG*dG*dG*dA*dG*dT*eA*eA*eA*eG*eA; antisense) [compound 530999] |  |  | % inhibition [3]: 31% |
| 531155 (antisense e[5mC]*eT*eT*e[5mC]*eT*dT*dG*dT*d[5mC]*dT*d[5mC]*dA*dG*dA*dT*eT*eA*e[5mC]*e[5mC]*eA) [compound 531155] |  |  | % inhibition [1]: 79% |
| 482586 (antisense eA*e[5mC]*e[5mC]*e[5mC]*eA*dA*d[5mC]*dA*dG*dT*dT*dG*dG*dT*dA*eT*eA*eA*eA*eT) [compound 482586] |  | 0% |  |
| 531049 (antisense eT*eT*eA*eT*eT*dT*dT*dA*dT*dA*dA*dT*d[5mC]*dT*dT*eG*eA*eT*eA*eT) [compound 531049] |  | 2% |  |
| 531214 (eT*eT*eT*eT*eT*d[5mC]*dT*dT*dT*dA*dA*dA*dT*dT*dT*eT*eG*e[5mC]*eT*eA; antisense) [compound 531214] | 37% |  |  |
| 531137 (antisense eT*eG*eT*e[5mC]*eT*dA*d[5mC]*dT*dA*dT*dT*dT*dG*dA*d[5mC]*e[5mC]*eA*eA*eT*eA) [compound 531137] |  |  | % inhibition [1]: 19% |
| 531056 (antisense eT*eT*eT*e[5mC]*e[5mC]*d[5mC]*d[5mC]*d[5mC]*dT*dT*d[5mC]*dT*dT*dT*dA*eT*eA*eG*e[5mC]*e[5mC]) [compound 531056] |  | 45% |  |
